Test results taken from US11220671B2, “Methods for the maturation of cardiomyocytes on amniotic fluid cell-derived ECM, cellular constructs, and uses for cardiotoxicity and proarrhythmic screening of drug compounds” (STEMBIOSYS, INC., priority 2019, dated 2022).
Read-outs that look alike come from different tables or passages of the source.

Assays:
[1] = test system: mature cardiomyocytes (hiPSC-CMs) on AFC-ECM
Protocol: The cardiotoxicity and/or proarrhythmia testing can be conducted using any type of equipment suitable for measuring such activity. In some embodiments, the cellular constructs of monolayers of mature cardiomyocytes on AFC-ECM are prepared as described supra. After the maturation process (generally 7 days or less), the electrophysiology of each well is observed using a plate reader. A suitable voltage sensitive or calcium sensitive fluorescent dye is loaded into each well. Non-limiting voltage sensitive dyes include FluoVolt™ dye commercially available from ThermoFisher. In some embodiments, the plate reader can rely on a suitable high spatiotemporal CCD camera combined with suitable lighting, such as light emitting diodes (LEDs), of the appropriate wavelength to excite each dye. Such high spatiotemporal CCD cameras are commercially available from SciMeasure. In some embodiments, the camera image acquisition rate is greater than or equal to 150 frames per second. In some embodiments, the camera and lens combination are designed such that it allows visualization of all the wells of the multi-well plate simultaneously with sufficient resolution to observe action potential and calcium wave propagation. Each plate is centered under the camera system, lighting is switched on and camera acquisition is initiated and electrophysiological activity is recorded. Experiments are performed at about 37° C. After baseline readings are made, the drug to be tested is added to the wells and the effects are recorded. Spontaneous activity is recorded for a sufficient period of time to obtain images, e.g. at least 10 seconds. The images can be stored on a computer. Images are analyzed and action potential duration, conduction velocity, beat rate and activation patterns can be quantified using image analysis software. Visualization of electrical wave patterns is important to determine a drug compound's effect to cause potentially fatal arrhythmias, e.g., Torsades de Pointes (TdP). Thus, in addition to providing information on a compound's effect on spontaneous action potential duration, the methods disclosed herein can also provide information on impulse conduction velocity and activation pattern depending on the type of equipment used.
After the 7-day maturation process the electrophysiology of each well was observed using a plate reader using the following high throughput screen method. FluoVolt™ dye in Hanks Balanced Salt Solution was loaded into each well. A high spatiotemporal CCD camera (SciMeasure DaVinci camera) combined with light emitting diodes (LEDs) as shown in the schematic in FIG. 22. The camera and lens combination were designed such that it allowed visualization of all the wells of the 96-well plate simultaneously with sufficient resolution to observe action potential and calcium wave propagation. Each plate was centered under the camera system, lighting was switched on and camera acquisition was initiated and electrophysiological activity was recorded. Experiments were performed at about 37° C. Spontaneous activity was recorded for at least 10 seconds and images were stored on a computer. […] Images were analyzed and action potential duration, conduction velocity, beat rate and activation patterns were quantified using image analysis software.
The drugs were selected from the CiPA Initiative's list of compounds for validation and testing of CiPA and are classified as high risk, intermediate risk or low risk for causing fatal arrhythmias (TdPs) in patients.

[2] = CiPA list: high, intermediate or low risk for causing fatal arrhythmias (TdPs) in patients; cited from earlier work
[3] = mature cardiomyocytes on AFC-ECM, 96-well plates, plate reader, any arrhythmia detected over Dose 1-4
[4] = mature cardiomyocytes on AFC-ECM, 96-well plates, at 10 times the effective therapeutic plasma concentration

| SMILES | APD90 Prolongation? @10X ETPC [1] | Arrhythmia Detected? [1] | Risk Category [2] | Arrhythmia Detected? [1, 3] | APD90 Prolongation? @10X ETPC [1, 4] |
| --- | --- | --- | --- | --- | --- |
| COc1ccc(CCN2CCC(Nc3nc4ccccc4n3Cc3ccc(F)cc3)CC2)cc1 [Astemizole] | Yes | Yes | – | – | – |
| CN1CCN(CCCCN2C(=O)CN(/N=C/c3ccc(-c4ccc(Cl)cc4)o3)C2=O)CC1 [Azimilide] | Yes | Yes, EAD | High | – | – |
| CC(C)COCC(CN(Cc1ccccc1)c1ccccc1)N1CCCC1 (stereo not drawn) [Bepridil] | Yes | Yes, Q | High | – | – |
| COc1cc(N)c(Cl)cc1C(=O)NC1CCN(CCCOc2ccc(F)cc2)CC1OC (stereo not drawn) [Cisapride] | No | Yes | Intermediate | – | – |
| CN1CCN(C2=Nc3cc(Cl)ccc3Nc3ccccc32)CC1 [Clozapine] | Yes | No | – | – | – |
| CC(C)NCC(O)c1ccc(NS(C)(=O)=O)cc1 (stereo not drawn) [D, I Sotalol] | – | – | High | Yes, EAD | Yes |
| COc1ccc([C@@H]2Sc3ccccc3N(CCN(C)C)C(=O)[C@@H]2OC(C)=O)cc1 [Diltiazem] | No, shortening | No | – | – | – |
| CC(C)N(CCC(C(N)=O)(c1ccccc1)c1ccccn1)C(C)C (stereo not drawn) [Disopyramide] | Yes | Yes, EAD, TA | – | – | – |
| CN(CCOc1ccc(NS(C)(=O)=O)cc1)CCc1ccc(NS(C)(=O)=O)cc1 [Dofetilide] | Yes | Yes, EAD | – | – | – |
| O=c1[nH]c2ccccc2n1CCCN1CCC(n2c(=O)[nH]c3cc(Cl)ccc32)CC1 [Domperidone] | Yes | Yes, TA | – | – | – |
| O=C(CCCN1CC=C(n2c(=O)[nH]c3ccccc32)CC1)c1ccc(F)cc1 [Droperidol] | Yes | Yes, EAD | – | – | – |
| CCCCCCCN(CC)CCCC(O)c1ccc(NS(C)(=O)=O)cc1 (stereo not drawn) [Ibutilide] | YeS | Yes, EAD | High | – | – |
| CCOC(=O)N1CCC(=C2c3ccc(Cl)cc3CCc3cccnc32)CC1 [Loratadine] | – | – | – | No | No |
| COCCc1ccc(OCC(O)CNC(C)C)cc1 (stereo not drawn) [Metoprolol] | No | Yes, | – | – | – |
| Cc1cccc(C)c1OCC(C)N (stereo not drawn) [Mexiletine] | No | No | – | – | – |
| CCOC(=O)C1=C(C)NC(C)=C(C(=O)OC)C1c1cccc([N+](=O)[O-])c1 (stereo not drawn) [Nitrendipine] | No, | No | – | – | – |
| Cc1nccn1CC1CCc2c(c3ccccc3n2C)C1=O (stereo not drawn) [Ondansetron] | Yes | Yes, EAD | Intermediate | – | – |
| O=c1[nH]c2ccccc2n1C1CCN(CCCC(c2ccc(F)cc2)c2ccc(F)cc2)CC1 [Pimozide] | No | Yes | – | – | – |
| C=C[C@H]1C[N@@]2CC[C@H]1C[C@@H]2[C@@H](O)c1ccnc2ccc(OC)cc12 [Quinidine] | Yes | – | – | Yes, EAD | – |
| COc1ccccc1OCC(O)CN1CCN(CC(=O)Nc2c(C)cccc2C)CC1 (stereo not drawn) [Ranolazine] | No | No | Low | – | – |
| Cc1nc2n(c(=O)c1CCN1CCC(c3noc4cc(F)ccc34)CC1)CCCC2 [Risperidone] | – | No | – | – | – |
| CC/C(=C(\c1ccccc1)c1ccc(OCCN(C)C)cc1)c1ccccc1 [Tamoxifen] | No | No | – | – | – |
| CC(C)(C)c1ccc(C(O)CCCN2CCC(C(O)(c3ccccc3)c3ccccc3)CC2)cc1 (stereo not drawn) [Terfenadine] | Yes | No | – | – | – |
| COc1cc2c(Nc3ccc(Br)cc3F)ncnc2cc1OCC1CCN(C)CC1 [Vandetanib] | Yes | Yes, EAD | High | – | – |
| COc1ccc(CCN(C)CCCC(C#N)(c2ccc(OC)c(OC)c2)C(C)C)cc1OC (stereo not drawn) [Verapamil] | No, Shortening | No | – | – | – |
